US12661410B2, “Compounds for targeted degradation of RET” (C4 Therapeutics, Inc., priority 2020, dated 2026)
Changes are numbered by the printed parent chain. Like-named read-outs stand apart in the source and are kept apart here.

Key:
RET(KD: 658-1114 G810R) = molecular target: T1, RET(KD: 658-1114 G810R) (Homo sapiens, UniProt P07949, G810R); assay: HiBiT-Degradation, RET G810R degradation assay (Nano-Glo HiBiT Lytic), 293T.165 cells; assay type: cell-based; conditions: for Emax / DC50: 6.0 hours
T1 construct: 658-1114; expressed in transfected cells; host or cells: 293T.165 (293T cells, generated in-house)
T1 sequence (P07949 658-1114 G810R): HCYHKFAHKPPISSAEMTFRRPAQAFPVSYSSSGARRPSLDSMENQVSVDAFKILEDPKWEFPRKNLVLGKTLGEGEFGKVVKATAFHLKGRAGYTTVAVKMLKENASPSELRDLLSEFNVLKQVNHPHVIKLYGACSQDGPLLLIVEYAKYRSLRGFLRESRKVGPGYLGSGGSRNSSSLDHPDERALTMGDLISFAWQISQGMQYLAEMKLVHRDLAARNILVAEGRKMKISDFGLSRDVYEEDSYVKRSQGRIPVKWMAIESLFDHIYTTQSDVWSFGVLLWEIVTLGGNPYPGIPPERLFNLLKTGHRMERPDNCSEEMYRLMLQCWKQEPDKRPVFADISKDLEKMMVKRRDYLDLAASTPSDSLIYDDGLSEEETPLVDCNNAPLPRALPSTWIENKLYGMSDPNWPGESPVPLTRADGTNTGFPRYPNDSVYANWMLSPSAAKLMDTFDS
How it was run: (§1)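 HEK293T lines expressing HiBiT-tagged RET kinase domain, wild-type (293T.144) or G810R (293T.165), treated 6 h in duplicate, 11-point half-log series from 10 μM top. Lytic HiBiT luminescence read; DC50 and Emax (% protein remaining) from dose-response curves.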

RET (658-1114) = molecular target: T2, RET (658-1114) (Homo sapiens, UniProt P07949); assay: HiBiT-Degradation, RET wild-type degradation assay (Nano-Glo HiBiT Lytic), 293T.144 cells; assay type: cell-based; conditions: for Emax / DC50: 6.0 hours
T2 construct: 658-1114; expressed in transfected cells; host or cells: 293T.144 (293T cells, generated in-house)
T2 sequence (P07949 658-1114): T1 sequence (P07949 658-1114 G810R) with R153G
How it was run: as §1

[1] = % remaining protein, read-out: 293T.165 RET(KD: 658-1114 G810R) 6.0 hours (Emax)
[2] = half-maximal degradation concentration, read-out: 293T.165 RET(KD: 658-1114 G810R) 6.0 hours (DC50)
[3] = % remaining protein, read-out: 293T.144 RET (658-1114) 6.0 hours (Emax)
[4] = half-maximal degradation concentration, read-out: 293T.144 RET (658-1114) 6.0 hours (DC50)
[5] = HiBiT-Degradation, read-out: 293T.165 RET(KD: 658-1114 G810R) 6.0 hours (DC50)
[6] = HiBiT-Degradation, read-out: 293T.144 RET (658-1114) 6.0 hours (DC50)
[7] = HiBiT-Degradation, read-out: 293T.144 RET (658-1114) 6.0 hours (Emax)
[8] = RET G810R, read-out: HiBiT-Degradation 293T.165 RET(KD: 658-1114 G810R) 6.0 hours (DC50)
[9] = RET G810R, read-out: HiBiT-Degradation 293T.165 RET(KD: 658-1114 G810R) 6.0 hours (Emax)
[10] = RET wild-type, read-out: HiBiT-Degradation 293T.144 RET (658-1114) 6.0 hours (DC50)
[11] = RET wild-type, read-out: HiBiT-Degradation 293T.144 RET (658-1114) 6.0 hours (Emax)

SMILES	293T.165 RET(KD: 658-1114 G810R) 6.0 hours (IP) [nM] (RET(KD: 658-1114 G810R))	Emax (RET(KD: 658-1114 G810R); [1])	DC50 (RET(KD: 658-1114 G810R); [2])	293T.144 RET (658-1114) 6.0 hours (IP) [nM] (RET (658-1114))	Emax (RET (658-1114); [3])	DC50 (RET (658-1114); [4])	293T.165 RET(KD: 658-1114 G810R) 6.0 hours (Emax) (RET(KD: 658-1114 G810R); HiBiT-Degradation)	293T.165 RET(KD: 658-1114 G810R) 6.0 hours (IP) [nM] (RET(KD: 658-1114 G810R); HiBiT-Degradation)	DC50 (RET(KD: 658-1114 G810R); [5])	293T.144 RET (658-1114) 6.0 hours (IP) [nM] (RET (658-1114); HiBiT-Degradation)	DC50 (RET (658-1114); [6])	Emax (RET (658-1114); [7])	HiBiT-Degradation 293T.165 RET(KD: 658-1114 G810R) 6.0 hours (IP) [nM] (RET(KD: 658-1114 G810R); RET G810R)	DC50 (RET(KD: 658-1114 G810R); [8])	Emax (RET(KD: 658-1114 G810R); [9])	HiBiT-Degradation 293T.144 RET (658-1114) 6.0 hours (IP) [nM] (RET (658-1114); RET wild-type)	DC50 (RET (658-1114); [10])	Emax (RET (658-1114); [11])
CCC1(C(=O)NC(C)C)CCN(c2ccc(-c3nc(-c4cnn(C5CCN(C(=O)CN6C7CCC6CC(c6ccc(NC8CCC(=O)NC8=O)cc6F)C7)CC5)c4)cn4ncc(C#N)c34)cn2)CC1 (stereo not drawn) [Compound 94, 1-[5-[3-cyano-6-[1-[1-[2-[3-[4-[(2,6-dioxo-3-piperidyl)amino]-2-fluoro-phenyl]-8-azabicyclo[3.2.1]octan-8-yl]acetyl]-4-piperidyl]pyrazol-4-yl]pyrazolo[1,5-a]pyrazin-4-yl]-2-pyridyl]-4-ethyl-N-isopropyl-piperidine-4-carboxamide]	++++ (<50 nM = ++++)	< 30%	< 50 nM	++++ (<50 nM = ++++)	< 30%	< 50 nM	–	–	–	–	–	–	–	–	–	–	–	–
CCC1(NC(=O)c2ncccc2Cl)CCN(c2ccc(-c3nc(-c4cnn([C@H]5CC[C@@H](N6CCN(c7ccc8c(N9CCC(=O)NC9=O)nn(C)c8c7F)CC6)CC5)c4)cn4ncc(C#N)c34)cn2)CC1 (single isomer, unassigned) [Compound 170, 3-Chloro-N-(1-(5-(3-cyano-6-(1-((1s, 4s)-4-(4-(3-(2,4-dioxotetrahydropyrimidin-1(2H)-yl)-7-fluoro-1-methyl-1H-indazol-6-yl)piperazin-1-yl)cyclohexyl)-1H-pyrazol-4-yl)pyrazolo[1,5-a]pyrazin-4-yl)pyridin-2-yl)-4-ethylpiperidin-4-yl)picolinamide]	++++ (<50 nM = ++++)	< 30%	< 100 nM	++++ (<50 nM = ++++)	< 30%	< 50 nM	–	–	–	–	–	–	–	–	–	–	–	–
CC(C)NC(=O)C1(C)CCN(c2ccc(-c3cc(-c4ccc(N5CCN(C(=O)CN6CCC(c7ccc(OC8CCC(=O)NC8=O)cc7)CC6)CC5)cc4)cn4ncc(C#N)c34)cn2)CC1 (stereo not drawn) [Compound 48, 1-[5-[3-cyano-6-[4-[4-[2-[4-[4-[(2,6-dioxo-3-piperidyl)oxy]phenyl]-1-piperidyl]acetyl]piperazin-1-yl]phenyl]pyrazolo[1,5-a]pyridin-4-yl]-2-pyridyl]-N-isopropyl-4-methyl-piperidine-4-carboxamide]	–	< 30%	< 100 nM	–	–	–	++++ (< 30% = ++++)	++++ (< 50 nM = ++++)	< 100 nM	++++ (< 50 nM = ++++)	< 50 nM	< 30%	–	–	–	–	–	–
CC(C)(C)NC(=O)C1(C)CCN(c2ccc(-c3cc(-c4ccc(N5CCN(C(=O)CN6CCC(c7ccc(NC8CCC(=O)NC8=O)cc7F)CC6)CC5)cc4)cn4ncc(C#N)c34)cn2)CC1 (stereo not drawn) [Compound 25, N-(tert-butyl)-1-(5-(3-cyano-6-(4-(4-(2-(4-(4-((2,6-dioxopiperidin-3-yl)amino)-2-fluorophenyl)piperidin-1-yl)acetyl)piperazin-1-yl)phenyl)pyrazolo[1,5-a]pyridin-4-yl)pyridin-2-yl)-4-methylpiperidine-4-carboxamide]	–	< 50%	< 100 nM	–	–	–	+++ (<50% = +++)	++++ (< 50 nM = ++++)	< 100 nM	++++ (< 50 nM = ++++)	< 50 nM	< 30%	–	–	–	–	–	–
CCC1(C(=O)NC(C)C)CCN(c2ccc(-c3nc(-c4cnn(C5CCN(C(=O)CC6(O)CCN(c7ccc(N[C@@H]8CCC(=O)NC8=O)cc7F)CC6)CC5)c4)cn4ncc(C#N)c34)cn2)CC1 (single isomer, unassigned) [Compound 79]	–	< 30%	< 50 nM	–	–	–	–	–	–	–	–	–	++++ (< 50 nM = ++++)	< 50 nM	< 30%	++++ (< 50 nM = ++++)	< 50 nM	< 30%
CC(C)NC(=O)C1(C)CCN(c2ccc(-c3cc(-c4cnn([C@H]5CC[C@H](CCN6CCC(c7ccc8c(N9CCC(=O)NC9=O)nn(C)c8c7)CC6)CC5)c4)cn4ncc(C#N)c34)cn2)CC1 [Compound 86, 1-[5-[3-cyano-6-[1-[(1r,4r)-4-[2-[4-[3-(2,4-dioxohexahydropyrimidin-1-yl)-1-methyl-indazol-6-1]-1-piperidyl]ethyl]cyclohexyl]pyrazol-4-yl]pyrazolo[1,5-a]pyridin-4-yl]-2-pyridyl]-N-isopropyl-4-methyl-piperidine-4-carboxamide]	–	< 30%	< 100 nM	–	–	–	–	–	–	–	–	–	++++ (< 50 nM = ++++)	< 100 nM	< 30%	++++ (< 50 nM = ++++)	< 50 nM	< 30%
CCC1(C(=O)NC(C)C)CCN(c2ncc(-c3cc(-c4cnn(C5CCN(C(=O)CN6CCC(c7ccc(NC8CCC(=O)NC8=O)cc7F)CC6)CC5)c4)cn4ncc(C#N)c34)cn2)CC1 (stereo not drawn) [Compound 59, 1-[5-[3-cyano-6-[1-[1-[2-[4-[4-[(2,6-dioxo-3-piperidyl)amino]-2-fluoro-phenyl]-1-piperidyl]acetyl]-4-piperidyl]pyrazol-4-yl]pyrazolo[1,5-a]pyridin-4-yl]pyrimidin-2-yl]-4-ethyl-N-isopropyl-piperidine-4-carboxamide]	–	< 50%	< 100 nM	–	–	–	+++ (<50% = +++)	++++ (< 50 nM = ++++)	< 100 nM	++++ (< 50 nM = ++++)	< 50 nM	< 30%	–	–	–	–	–	–
N#Cc1cnn2cc(-c3cnn(C4CCN(C(=O)CN5CCC(c6ccc(NC7CCC(=O)NC7=O)cc6F)CC5)CC4)c3)nc(-c3ccc(N4CCC(Cc5ccccn5)CC4)nc3)c12 (stereo not drawn) [Compound 72, 6-[1-[1-[2-[4-[4-[(2,6-dioxo-3-piperidyl)amino]-2-fluoro-phenyl]-1-piperidyl]acetyl]-4-piperidyl]pyrazol-4-yl]-4-[6-[4-(2-pyridylmethyl)-1-piperidyl]-3-pyridyl]pyrazolo[1,5-a]pyrazine-3-carbonitrile]	–	< 50%	< 50 nM	–	–	–	–	–	–	–	–	–	++++ (< 50 nM = ++++)	< 50 nM	< 50%	++++ (< 50 nM = ++++)	< 50 nM	< 30%
